This note sets out measurements from ChEMBL document CHEMBL1201862, “PubChem BioAssay data set” (2004).

Assay in all cases: inhibition of tumour cell growth, NCI panel, 48 h
The test system of test [1] is MOLT-4.
The subject of test [2] is SNB-75.
Test [3] relates to RXF 393.
For test [4], the system named is EKVX.
For test [5], the system named is SF-539.
Test [6] deals with K562.
For test [7], the system named is HL-60.
Test [8] concerns SK-MEL-5.
Test [9] concerns NCI-H460.
Test [10] deals with SN12C.
The subject of test [11] is SK-OV-3.
The subject of test [12] is U-251.
Test [13] concerns LOX IMVI.
For test [14], the system named is KM12.
The test system of test [15] is HOP-92.
For test [16], the system named is NCI-H226.
Test [17] has as its system SW-620.
Test [18] relates to SF-295.
In test [19] the test system is HOP-62.
The test system of test [20] is HT-29.

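These data come from cells grown in 96-well plates and exposed to compound for 48 hours at five concentrations. GI50 is the concentration that inhibits growth by half.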 Activity calls are given as the source filed them. Rule as the data show it: active = GI50 up to about 1.1 µM and inactive = higher.

As for `Cn1c(=O)[nH]c2c(c1=O)C(=O)CN2`, the GI50 in [1], in [2], in test [3], in test [4], in [5] and in test [6] was > 100 µM (inactive) in each case. The GI50 in test [7], in test [8], in test [9], in [10], in test [11] and in test [12] was > 100 µM (inactive) throughout. For the same compound, the GI50 in test [13] was > 100 µM (inactive); in [14], > 100 µM (inactive); in test [15], < 0.01 µM (active); in test [16] it was 36.2 µM (inactive); in test [17], > 100 µM (inactive); in test [18] it was > 100 µM (inactive).

As to `NC(S)=Nc1cc(Cl)ccc1Cl`, the GI50 in test [19] was > 100 µM (inactive); in [1] it was > 100 µM (inactive); in test [2], 55.7 µM (inactive); in [3], 94 µM (inactive); in [4] it was > 100 µM (inactive); in test [5] it was > 100 µM (inactive). Also, the GI50 in test [6], in test [7], in test [8], in [9], in test [10] and in [11] was > 100 µM (inactive) throughout. Moreover, the GI50 in test [12] is > 100 µM (inactive); in [20] it was > 100 µM (inactive); in [13] it was > 100 µM (inactive); in test [14], > 100 µM (inactive); in [15], 85.1 µM (inactive); in test [16], > 100 µM (inactive). In addition, the GI50 in [17] and in [18] was > 100 µM (inactive) throughout.

For `COc1nc(-c2cn(S(=O)(=O)c3ccc(C)cc3)c3ccc(Br)cc23)cc(C(F)(F)F)c1C#N`, the GI50 was 31.3 µM (inactive) in test [1]; 23.3 µM (inactive) in test [2]; 19.8 µM (inactive) in [3]; 40 µM (inactive) in [4]; 34.9 µM (inactive) in test [5]; 27.8 µM (inactive) in [6]. The GI50 is 86.7 µM (inactive) in test [7]; 77.6 µM (inactive) in test [8]; > 100 µM (inactive) in test [9]; 45.1 µM (inactive) in test [10]; 21 µM (inactive) in test [11]; 16.9 µM (inactive) in test [12]. The GI50 in test [20] was > 100 µM (inactive); in test [13] it was 23.7 µM (inactive); in test [14], > 100 µM (inactive); in test [15], 31.3 µM (inactive); in test [16], 18 µM (inactive); in [17], 66.2 µM (inactive). The GI50 in [18] was 97.3 µM (inactive).

Consider `Cc1ccc(N(O)C(C)(C)C)cc1`, for which the GI50 in test [19], in test [1], in [2], in [3], in [4] and in test [5] was > 100 µM (inactive) each time. Further, the GI50 is > 100 µM (inactive) in test [6]; > 78.3 µM (inactive) in test [7]; > 100 µM (inactive) in test [8]; > 100 µM (inactive) in test [9]; > 100 µM (inactive) in test [10]; > 100 µM (inactive) in test [11]. Further, the GI50 in test [12], in test [20], in test [13], in [14], in test [15] and in test [16] was > 100 µM (inactive) each time. The GI50 in [17] and in [18] was > 100 µM (inactive) each time.

For `COc1cc(/N=N\c2cccc(S(=O)(=O)O)c2)c(C)cc1/N=N\c1ccc(/C=C/c2ccc(/N=[N+](/[O-])c3ccc(/C=C/c4ccc(/N=N\c5cc(C)c(/N=N/c6cccc(S(=O)(=O)O)c6)cc5OC)cc4)c(S(=O)(=O)O)c3)cc2S(=O)(=O)O)cc1`, the GI50 in test [19], in test [1], in test [2], in test [3], in test [4] and in test [5] was > 100 µM (inactive) in each case. Also, the GI50 in test [6], in [7], in test [8], in test [9], in [10] and in test [11] was > 100 µM (inactive) throughout. Also, the GI50 in test [12] was > 100 µM (inactive); in test [20], > 100 µM (inactive); in test [13], > 100 µM (inactive); in test [14], > 100 µM (inactive); in test [15], > 77.3 µM (inactive); in test [16] it was > 100 µM (inactive). The GI50 in [17] and in test [18] was > 100 µM (inactive) throughout.

Regarding `O=[N+]([O-])c1cc2ncc(-c3ccccc3)c(O)c2cc1/C(Cl)=C/c1ccccc1`, the GI50 in test [19] was 16.3 µM (inactive); in test [1], 6.85 µM (inactive); in [2] it was 9.1 µM (inactive); in [3], 8.17 µM (inactive); in test [4], 5.57 µM (inactive); in test [5], 11.6 µM (inactive). Further, the GI50 is 5.86 µM (inactive) in test [6]; 5.25 µM (inactive) in test [7]; 5.04 µM (inactive) in test [8]; 9.16 µM (inactive) in test [9]; 14.2 µM (inactive) in test [10]; 27.1 µM (inactive) in test [11]. Further, the GI50 in [12] is 6.5 µM (inactive); in test [20], 13.4 µM (inactive); in test [13], 6.93 µM (inactive); in test [14] it was 9.12 µM (inactive); in [15] it was 3.47 µM (inactive); in [16], 13 µM (inactive). Also, the GI50 was 6.71 µM (inactive) in [17] and 6.65 µM (inactive) in test [18].

Take `CC(=O)NC(Cc1ccsc1)C(=O)O` (configuration not stated): the GI50 in [19], in test [1], in [2], in test [3], in test [4] and in [5] was > 100 µM (inactive) each time. Further, the GI50 in test [6], in test [7], in test [8], in test [9], in test [10] and in test [11] was > 100 µM (inactive) throughout. Further, the GI50 in test [12], in test [20], in test [13], in test [14], in [15] and in test [16] was > 100 µM (inactive) each time. Also, the GI50 is > 100 µM (inactive) in test [17] and > 62.2 µM (inactive) in [18].
